Where two headings read alike, the source gives them in different places.

The values below come from patent publication US10144756B2, “Stable solid forms of regadenoson” (Euticals S.p.A., priority 2013, dated 2018).

The conditions of data set [1]: U.S. Pat. No. 8,106,183 / WO2012149196, cited from earlier work.
A short description of data set [2]: HPLC stability of solid forms stored at 90% RH and 20-25° C. Particulars: for HPLC stability data (chromatographic purity): 90% RH and 20-25° C.
Data set [3] in a line: HPLC stability of solid forms stored at 80° C. in inert atmosphere. Particulars: for HPLC stability data (chromatographic purity): 80° C. in inert atmosphere.
A short description of data set [4]: Thermal treatment of polymorphic form A at 190-200° C. (prior-art route to amorphous form). The data set is classed as physicochemical. Particulars: thermal treatment at 190-200° C. The protocol: In U.S. Pat. No. 8,106,183 the method of preparation of an amorphous form of Regadenoson is described by heating polymorphic form A at 200° C.; this solid state, differently by polymorphic forms A-C, was not described by the authors by an X-ray diffraction spectrum in order to identify possible characteristic halo-peaks (broad peaks). This amorphous form was prepared according to U.S. Pat. No. 8,106,183 by heating the polymorphic form A over the melting point value of this substance (that for polymorphic form A is 194.5° C.). This method is not industrially applicable and leads to the formation of several side products. […] To the best of our knowledge, this is the only described method for the preparation of amorphous Regadenoson.

Experiment in data set [5]: not given
The source holds these as a separate data set.

Consider `CNC(=O)c1cnn(-c2nc(N)c3ncn([C@@H]4O[C@H](CO)[C@@H](O)[C@H]4O)c3n2)c1` [Form D], for which, in data set [1], the “stability of the solid form as described in the literature” value (“stability of the solid form as described” for short) is “stable under inert conditions”.
`CNC(=O)c1cnn(-c2nc(N)c3ncn([C@@H]4O[C@H](CO)[C@@H](O)[C@H]4O)c3n2)c1` [Polymorph C]: the “stability of the solid form as described” value in data set [1] is recorded as “unstable at high temperatures”.
Take `CNC(=O)c1cnn(-c2nc(N)c3ncn([C@@H]4O[C@H](CO)[C@@H](O)[C@H]4O)c3n2)c1` [Halo Amorphous, (1-{9-[(4S,2R,3R,5R)-3,4-dihydroxy-5-(hydroxymethyl)oxolan-2-yl]-6-aminopurin-2yl}pyrazol-4-yl)-N-methylcarboxamide]: the HPLC stability data (chromatographic purity) in data set [2] (time 0 hours), in data set [2] (time 96 hours), in data set [3] (time 0 hours), in data set [3] (time 72 hours) and in data set [3] (time 96 hours) was 99.7% throughout. Further, the “formation of degradation products” value in data set [2] (exposed to moisture, 25° C./90% RH up to 96 hours) is on record as “does not give origin to degradation products”; in data set [3] (dry conditions, 80° C. up to 96 hours), “does not give origin to degradation products”. Besides, the stability to heating entry in data set [3] (80° C., protected atmosphere / dry conditions, up to 96 hours) is “stable to the heating”.
Regarding `CNC(=O)c1cnn(-c2nc(N)c3ncn([C@@H]4O[C@H](CO)[C@@H](O)[C@H]4O)c3n2)c1` [Form A, (1-{9-[(4S,2R,3R,5R)-3,4-dihydroxy-5-(hydroxymethyl)oxolan-2-yl]-6-aminopurin-2yl}pyrazol-4-yl)-N-methylcarboxamide, reference compound], the “stability of the solid form as described” value in data set [1] (listed as Regadenoson Form A) was “more stable than polymorphs B and C”. Also, the HPLC stability data (chromatographic purity) in data set [2] (time 0 hours), in data set [2] (time 96 hours), in data set [3] (time 0 hours), in data set [3] (time 72 hours) and in data set [3] (time 96 hours) was 99.5% in each case. Moreover, in data set [4], the “decrease of chromatographic purity” value is “about 30%”. Besides, in data set [4] (form A is white before), the “change in the color of the sample” value is recorded as “the color changes to brown”.
`CNC(=O)c1cnn(-c2nc(N)c3ncn([C@@H]4O[C@H](CO)[C@@H](O)[C@H]4O)c3n2)c1` [Form F, (1-{9-[(4S,2R,3R,5R)-3,4-dihydroxy-5-(hydroxymethyl)oxolan-2-yl]-6-aminopurin-2yl}pyrazol-4-yl)-N-methylcarboxamide] yielded an HPLC stability data (chromatographic purity) (0 h) of 99.8%; an HPLC stability data (chromatographic purity) (96 h) of 99.8%; an HPLC stability data (chromatographic purity) in data set [5] (0 h) of 99.8%; an HPLC stability data (chromatographic purity) in data set [5] (72 h) of 99.7%; an HPLC stability data (chromatographic purity) in data set [5] (96 h) of 99.7%.
In turn, `CNC(=O)c1cnn(-c2nc(N)c3ncn([C@@H]4O[C@H](CO)[C@@H](O)[C@H]4O)c3n2)c1` [Form G, (1-{9-[(4S,2R,3R,5R)-3,4-dihydroxy-5-(hydroxymethyl)oxolan-2-yl]-6-aminopurin-2yl}pyrazol-4-yl)-N-methylcarboxamide] came in with an HPLC stability data (chromatographic purity) (0 h) of 99.8%; an HPLC stability data (chromatographic purity) (96 h) of 99.8%; an HPLC stability data (chromatographic purity) in data set [5] (0 h) of 99.8%; an HPLC stability data (chromatographic purity) in data set [5] (72 h) of 99.8%; an HPLC stability data (chromatographic purity) in data set [5] (96 h) of 99.8%.
In turn, `CNC(=O)c1cnn(-c2nc(N)c3ncn([C@@H]4O[C@H](CO)[C@@H](O)[C@H]4O)c3n2)c1` [Form E] gave an HPLC stability data (chromatographic purity) (0 h) of 99.6%; an HPLC stability data (chromatographic purity) (96 h) of 99.7%; an HPLC stability data (chromatographic purity) in data set [5] (0 h) of 99.6%; an HPLC stability data (chromatographic purity) in data set [5] (72 h) of 99.4%; an HPLC stability data (chromatographic purity) in data set [5] (96 h) of 99.6%.
